Data taken from article PMC10983001, “Development of Cytotoxic GW7604-Zeise’s Salt Conjugates as Multitarget Compounds with Selectivity for Estrogen Receptor- Positive Tumor Cells” (Journal of Medicinal Chemistry, 2024).
Read-outs that look alike come from different tables or passages of the source.

Legend:
[1] = system: MCF-7 cells; test: MTT assay of metabolic activity, MCF-7; assay type: cell-based, human
Description: (§1) The GW7604-Alk-PtCl3 complexes (with exclusion of GW7604-Prop-PtCl3) were investigated for cytotoxic effects in SKBr3 (ER-negative, COX-2-positive, Figure 6), MCF-7 (ERα-positive, COX-negative, Figure 6), and noncancerous TSA-201 (human embryonal kidney) cells at concentrations of 10–30 μM using an established MTT (3-(4,5-dimethylthiazol-2-yl)-2,5-diphenyltetrazolium bromide) assay.[60],[69]
(§2) After incubation for 72 h, the amounts of surviving, metabolically active cells were quantified based on their ability to transform the water-soluble yellow dye MTT to a purple formazan, which can be analyzed by UV–vis spectroscopy.
(§3) The exponentially growing cells were seeded at a density of 1750 (MCF-7), 2000 (SKBr3), and 1250 (TSA-201) cells/well into clear flat-bottom 96-well plates in triplicate. Following 24 h of incubation at 37 °C in a humidified atmosphere (5% CO2/95% air), the compounds [freshly prepared stock solutions in DMF, diluted with DMEM to the desired concentration (final DMF concentration of 0.1% (v/v))] were added to reach the indicated concentrations. After another 72 h of incubation, the cellular metabolic activity was measured employing an MTT assay. By adding predissolved MTT reagent in PBS at a final concentration of 0.5 mg/mL, the metabolic activity can be determined via an enzymatic conversion to a purple formazan salt. After 3 h, the medium was aspirated, and 200 μL of DMSO was added to dissolve the formed formazan crystals. The absorbance was measured at 570 and 690 nm (turbidity assessment) using an EnSpire plate reader (PerkinElmer, Waltham, MA, USA). Solvent-treated cells without a compound served as the positive control. Metabolic activity was calculated by the following equation [drawing 1]

[2] = biological target: T1, ERα ligand-binding domain (Homo sapiens, UniProt P03372); test: TR-FRET ligand binding assay, isolated LBD of ERα
T1 construct: purchased Invitrogen
T1 sequence (P03372 311-547 limits assumed): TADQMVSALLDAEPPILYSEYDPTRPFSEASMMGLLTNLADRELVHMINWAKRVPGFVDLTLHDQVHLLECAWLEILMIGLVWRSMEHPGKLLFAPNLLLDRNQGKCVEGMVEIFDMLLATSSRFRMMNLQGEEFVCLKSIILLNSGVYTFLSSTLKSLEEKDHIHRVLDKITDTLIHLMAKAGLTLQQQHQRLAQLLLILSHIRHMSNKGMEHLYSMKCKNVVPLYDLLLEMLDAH
Description: (§4) A modified LanthaScreen TR-FRET alpha/beta assay was performed, according to the manufacturer’s protocol (Invitrogen, Carlsbad, […]), to determine the binding affinity to the isolated LBD. […] Measurements were carried out on a multimode plate reader, Tecan Spark (Tecan, Männedorf, Switzerland). Calculations and visualization were performed with GraphPad Prism 8.0 (GraphPad Software, San Diego, CA, USA).

[3] = biological target: T2, ERβ ligand-binding domain (Homo sapiens, UniProt Q92731); test: TR-FRET ligand binding assay, isolated LBD of ERβ
T2 construct: purchased Invitrogen
T2 sequence (Q92731 264-498 limits assumed): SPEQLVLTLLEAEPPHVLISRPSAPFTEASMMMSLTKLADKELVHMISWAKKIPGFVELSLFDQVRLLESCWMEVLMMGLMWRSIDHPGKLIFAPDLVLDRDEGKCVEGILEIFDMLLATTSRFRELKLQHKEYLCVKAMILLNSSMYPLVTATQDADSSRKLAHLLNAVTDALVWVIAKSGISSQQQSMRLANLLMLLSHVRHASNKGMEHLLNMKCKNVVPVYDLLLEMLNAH
Description: as §4

[4] = system: SKBr3 cells; test: MTT assay of metabolic activity, SKBr3; assay type: cell-based, human; conditions: 72 h; for IC50: MTT
Description: as §1, §2, §3

[5] = system: MCF-7 cells; test: Cellular uptake (platinum by HR-CS-AAS), MCF-7; assay type: cell-based, human; conditions: MCF-7, 20 μM, 8 h
Description: (§5) In order to reach the DNA, the complexes must first pass through the cell membrane and penetrate into the nuclei. Therefore, the cellular uptake kinetics of GW7604-Alk-PtCl3 complexes were studied using the example of GW7604-Pent-PtCl3. This complex and Cisplatin, respectively, were incubated at a concentration of 20 μM with MCF-7 or SKBr3 cells. After various time points [i.e., 0 (3 min), 0.5, 1, 2, 4, and 8 h], cell pellets were prepared, and the platinum content was quantified by high-resolution continuum source atomic absorption spectrometry (HR-CS-AAS).[52]
(§6) After thawing of the cell/nuclei pellets, they were resuspended in ultrapure water (Siemens LaboStar, Günzburg, Germany; 300 μL) and lyzed with a sonotrode (Bandelin Sonoplus, Berlin, Germany; parameters 20 s, 9 cycles, 80% power). Graphite furnace (GF) AAS was used to quantify the lysates concerning their content of platinum (λ = 265.9450 nm). For this purpose, a contrAA 700 High-Resolution-Continous Source AAS (Analytik Jena, Jena, Germany) was employed, while atomization took place by electrothermal heating of graphite tubes with an inserted platform (Analytik Jena, Jena, Germany). A time–temperature program reported in the literature[25] was followed with minor adjustments. The liquid samples kept in 0.5 mL polystyrene vials (Gesellschaft für Analysentechnik, Salzwedel, Germany) were injected directly into the pyrolytically coated tubes using an MPE 60 autosampler (Analytik Jena, Jena, Germany). Throughout the measurements, argon (Alphagaz 1, 99.999%, Air Liquide, Düsseldorf, Germany) served as the purge and protective gas. The spectrometer was monitored with the ASpect CS software, version 2.3.1.0 (Analytik Jena, Jena, Germany). For all runs, the mean integrated absorbance was determined after three injections of each standard or sample. Calibration was performed by an appropriate dilution of a solution of Cisplatin (Sigma-Aldrich, Taufkirchen, Germany) obtaining five standards (2–10 μg/L, R^2 ≥ 0.982). Each cell/nuclei lysate was quantified concerning its protein content following the method of Bradford[71] in order to express the uptake as the amount of compound (pmol) in the lysate relative to its protein mass (mg). Therefore, solutions of Albumin fraction V (Carl Roth, Karlsruhe, Germany) diluted with ultrapure water were adduced for the calibration (six standards, 50–300 μg/mL, R^2 ≥ 0.996). A volume of 20 μL of the Albumin standards or the lysates was added to a 96-well plate (Sarstedt, Nürmbrecht, Germany) and supplemented with 200 μL of Bradford’s reagent (Roti-Nanoquant, Carl Roth, Karlsruhe, Germany; diluted 5-fold with ultrapure water). All standards and lysates were measured in duplicate. After incubating for 5 min at rt, the absorbance (λ = 595 nm) was read on a microplate reader (Tecan Safire 2, Männedorf, Switzerland). The cellular/nuclear uptake (pmol complex/mg protein) is given as the mean ± SD of 2 independent experiments.
For cellular uptake studies, 1.0 × 10^6 of MCF-7 and SKBr3 cells in their exponential growing phase were seeded into 25 cm^2 cell culture flasks and incubated for 24 h under a humidified atmosphere (5% CO2/95% air) at 37 °C. Stock solutions of the platinum complexes (GW7604-Pent-PtCl3, Cisplatin) in DMF were freshly prepared and diluted with complete DMEM containing 10% FCS to the desired concentration [final DMF concentration of 0.1% (v/v), final complex concentration of 20 μM]. The medium in the cell culture flasks was replaced with 3 mL of fresh cell culture medium containing the compounds, and the flasks were incubated under a humidified atmosphere at 37 °C for 3 min, 0.5, 1, 2, 4, and 8 h. Cell pellets were prepared by removing the medium, washing two times with phosphate-buffered saline (PBS), and detaching the cells with Accutase (GE Healthcare, BioSciences, Chicago, IL, USA). Subsequently, cells were pelleted by centrifugation (4 °C, 380g, 3 min). […]

[6] = system: SKBr3 cells; test: Cellular uptake (platinum by HR-CS-AAS), SKBr3; assay type: cell-based, human; conditions: 8 h
Description: as §5
as §6, with “A volume of 20 μL of the Albumin standards or the lysates was added to a 96-well plate (Sarstedt, Nürmbrecht, Germany) and supplemented with 200 μL of Bradford’s reagent (Roti-Nanoquant, Carl Roth, Karlsruhe, Germany; diluted 5-fold with ultrapure water).” left out, “The cellular/nuclear uptake (pmol complex/mg protein) is given as the mean ± SD of 2 independent experiments.” left out

[7] = system: nuclei of MCF-7 cells; test: Nuclear uptake (platinum by HR-CS-AAS), MCF-7; assay type: cell-based, human; conditions: MCF-7, 20 μM, 24 h; pmol complex/mg protein
Description: (§7) Fluorescence in the nuclei is not detectable. Therefore, the nuclei were analyzed for their platinum content using HR-CS-AAS.[25]
(§8) After thawing of the cell/nuclei pellets, they were resuspended in ultrapure water (Siemens LaboStar, Günzburg, Germany; 300 μL) and lyzed with a sonotrode (Bandelin Sonoplus, Berlin, Germany; parameters 20 s, 9 cycles, 80% power). Graphite furnace (GF) AAS was used to quantify the lysates concerning their content of platinum (λ = 265.9450 nm). For this purpose, a contrAA 700 High-Resolution-Continous Source AAS (Analytik Jena, Jena, Germany) was employed, while atomization took place by electrothermal heating of graphite tubes with an inserted platform (Analytik Jena, Jena, Germany). […] The spectrometer was monitored with the ASpect CS software, version 2.3.1.0 (Analytik Jena, Jena, Germany). For all runs, the mean integrated absorbance was determined after three injections of each standard or sample. […] Each cell/nuclei lysate was quantified concerning its protein content following the method of Bradford[71] in order to express the uptake as the amount of compound (pmol) in the lysate relative to its protein mass (mg). […] All standards and lysates were measured in duplicate. After incubating for 5 min at rt, the absorbance (λ = 595 nm) was read on a microplate reader (Tecan Safire 2, Männedorf, Switzerland). […]

[8] = system: nuclei of SKBr3 cells; test: Nuclear uptake (platinum by HR-CS-AAS), SKBr3; assay type: cell-based, human; conditions: SKBr3, 20 μM, 24 h
Description: as §7, §8

[9] = system: MCF-7 cells; test: Comet assay; assay type: cell-based, human; conditions: MCF-7, 15 μM, 48 h
Description: The comet assay (Figure 10), however, documents different consequences of DNA binding. […] The picture (Figure 10C) is very similar to that of the solvent control (Figure 10A).
MCF-7 cells were seeded at a density of 1.0 × 10^6 cells into a 25 cm^2 flask, followed by 24 h of incubation in a humidified atmosphere (5% CO2/95% air) at 37 °C. […] Cells were incubated with the compounds for 48 h. The assay was performed according to the manufacturer’s protocol (Comet assay kit, Abcam, Cambridge, UK). Briefly, after lysis and application to the microscopy slides, electrophoresis was run in an alkaline buffer for 20 min at 2 V/cm. Subsequently, slides were washed with pure deionized water and EtOH/water [7/3 (v/v)], and stained with Vista Green DNA Dye. Visualization was carried out by real-time live confocal microscopy using an inverted microscope (Zeiss Observer Z1) in arrangement with a spinning disc confocal system (UltraVIEW VoX).

[10] = system: TSA-201 cells; test: MTT assay of metabolic activity, noncancerous TSA-201; assay type: cell-based, human; conditions: 72 h; for IC50: MTT, read-out: IC50 TSA-210
Description: as §1, §2, §3

[11] = Water solubility; assay type: physicochemical
[12] = Homo sapiens, MCF7, 72 h, MTT, read-out: IC50 MCF-7
[13] = 72 h, MTT, read-out: IC50 MCF-7

Compound: CCC(=C(c1ccc(O)cc1)c1ccc(C=CC(=O)O)cc1)c1ccccc1 (mixture of isomers) [GW7604, (E)-3-(4-((E/Z)-1-(4-hydroxyphenyl)-2-phenylbut-1-en-1-yl)phenyl)acrylic acid]
- IC50 ([1]; Homo sapiens, MCF7, read-out: IC50, reduction of growth of MCF-7 cells): 0.171 µM

Compound: C=CCCOC(=O)/C=C/c1ccc(C(=C(CC)c2ccccc2)c2ccc(O)cc2)cc1 (mixture of isomers) [GW7604-But, But-3-en-1-yl (E)-3-(4-((E/Z)-1-(4-hydroxyphenyl)-2-phenylbut-1-en-1-yl)phenyl) Acrylate]
- IC50 [1, 12]: > 30 µM

Compound: C=CCCCCOC(=O)/C=C/c1ccc(C(=C(CC)c2ccccc2)c2ccc(O)cc2)cc1 (mixture of isomers) [GW7604-Hex, Hex-5-en-1-yl (E)-3-(4-((E/Z)-1-(4-hydroxyphenyl)-2-phenylbut-1-en-1-yl)phenyl) Acrylate]
- IC50 [1, 12]: > 30 µM

Compound: C=CCCCOC(=O)/C=C/c1ccc(C(=C(CC)c2ccccc2)c2ccc(O)cc2)cc1 (mixture of isomers) [GW7604-Pent, Pent-4-en-1-yl (E)-3-(4-((E/Z)-1-(4-hydroxyphenyl)-2-phenylbut-1-en-1-yl)phenyl) Acrylate]
- RBA (ERα) ([2]; RBA(E2) = 100%): 0.90%
- IC50 ([2]; read-out: IC50 (ERα), displacement from the LBS): 0.0391 µM
- RBA (ERβ) ([3]; RBA(E2) = 100%): 0.23%
- IC50 ([3]; read-out: IC50 (ERβ), displacement from the LBS): 0.105 µM
- IC50 [1, 12]: > 30 µM

Compound: C=CCOC(=O)/C=C/c1ccc(C(=C(CC)c2ccccc2)c2ccc(O)cc2)cc1 (mixture of isomers) [GW7604-Prop, Prop-2-en-1-yl (E)-3-(4-((E/Z)-1-(4-hydroxyphenyl)-2-phenylbut-1-en-1-yl)phenyl) Acrylate]
- IC50 [1, 12]: 20 to 30 µM

Compound: N.N.[Cl][Pt][Cl] [Cisplatin, cis-diamminedichloridoplatinum(II), reference compound]
- IC50 [1, 13]: 15 µM
- reduction of metabolic activity ([4]; SKBr3, 20 μM): 88%
- intracellular platinum amount [5]: 319 pmol/mg
- accumulation in SKBr3 relative to MCF-7 cells ([6]; 20 μM): 15 fold
- intracellular platinum amount ([6]; SKBr3, 20 μM): 995 pmol/mg
- platinum content in the nuclei [7]: 172 pmol/mg
- platinum content in the nuclei [8]: 652 pmol/mg
- comet tails (DNA cross-links) [9]: visible as comet tails

Compound: Potassium trichlorido[η^2-(but-3-en-1-yl (E)-3-(4-((E/Z)-1-(4-hydroxyphenyl)-2-phenylbut-1-en-1-yl)phenyl)acrylate)]platinate(II) [GW7604-But-PtCl3]
- IC50 [1, 13]: 20.4 µM
- IC50 [4]: > 30 µM
- IC50 [10]: > 30 µM
- decrease of cell viability ([10]; TSA-201, 30 μM): about 20%

Compound: Potassium trichlorido[η^2-(hex-5-en-1-yl (E)-3-(4-((E/Z)-1-(4-hydroxyphenyl)-2-phenylbut-1-en-1-yl)phenyl)acrylate)]platinate(II) [GW7604-Hex-PtCl3]
- IC50 [1, 13]: 20.5 µM
- IC50 [4]: > 30 µM
- IC50 [10]: > 30 µM

Compound: Potassium trichlorido[η^2-(prop-2-en-1-yl (E)-3-(4-((E/Z)-1-(4-hydroxyphenyl)-2-phenylbut-1-en-1-yl)phenyl)acrylate)]platinate(II) [GW7604-Prop-PtCl3]
- water solubility [11]: does not have sufficient water solubility
